# From patent publication US12661385B2, “Modulation of mTORCI activity and autophagy via CIB2-RHEB interaction” (University of Maryland, Baltimore, priority 2018, dated 2026)
# Substitutions are numbered along the chain they refer to.
# B1: CIB2-eGFP: eGFP-tagged human CIB2 used as bait in the NanoSPD assay (protein)
# chain: MGNKQTIFTEEQLDNYQDCTFFNKKDILKLHSRFYELAPNLVPMDYRKSPIVHVPMSLIIQMPELRENPFKERIVAAFSEDGEGNLTFNDFVDMFSVLCESAPRELKANYAFKIYDFNTDNFICKEDLELTLARLTKSELDEEEVVLVCDKVIEEADLDGDGKLGFADFEDMIAKAPDFLSTFHIRI
# modifications: left off: large carriers
# notes: eGFP-tagged human CIB2 used as bait in the NanoSPD assay
# B2: tdTomato-CIB2: tdTomato tagged CIB2 expressed in HEK293 cells (tdTomato-C1-mCIB2 construct) (protein)
# chain: B1 chain with S32A, A76E, L130M, D141E, E143D
# modifications: left off: large carriers
# How the values were obtained:
# [1] = system: RPE-specific Cib2^KO mice; conditions: mouse, in vivo
# Text: For comparison, untreated WT control mice (black squares) are replotted from FIG. 6b. c, Schematic of treatment paradigm in RPE-specific Cib2^KO injected with 9-cis retinal and control mice injected with vehicle. d. […] TEM micrographs for indicated genotype at the end of the treatment paradigm as outlined in c (n=3/genotype).
# To further assess the potential clinical translatability of exogenous retinoids, we tested an extended treatment paradigm following injection of 9-cis retinal in RPE-specific Cib2^KO mice (FIG. 4c). […] To assess medium-term efficacy of exogenous retinoid therapy, we extended the paradigm further by one month.
# Electroretinograms (ERG) were recorded as earlier described^14 with modifications. Mice, overnight dark-adapted, were anesthetized with ketamine-xylazine (100 mg/kg and 10 mg/kg, respectively) and pupils were dilated with 1% Tropicamide. A gold wire lens electrode was placed on the cornea, a platinum reference electrode in the mouth, and a ground electrode on the tail. To assess rod-driven responses, increasing scotopic stimuli were presented sequentially (0.003962233 to 3.147314 cd×s/m2) with 5-60 sec intervals using UTAS BigShot (LKC Technologies, Gaithersburg, MD). At least 3 waveforms per intensity were averaged. For cone function evaluation, photopic responses to a single bright flash (3.15 cd×s/m2) under a steady rod-suppressing field of cd×s/m2. Waves were analyzed using EM for Windows software (LKC Technologies).
# [2] = system: RPE-specific Cib2^KO mice; assay: TEM analysis of the RPE at the conclusion of treatment; assay type: in vivo, mouse; conditions: 9-cis retinal-treated RPE-specific Cib2^KO mice
# Experimental: FIG. 4. […] Scale bar. 2 μm.
# Sections for EM were prepared as previously described 48. Briefly, hemisected eyecups were rinsed in buffer and postfixed in 2% osmium tetroxide and 1.5% potassium ferrocyanide in dH2O for 2 hr, dehydrated in a graded ethanol series, and embedded in Epon-Araldite (Electron Microscopy Sciences, Hatfield, PA). Semi-thin sections (4 μm) were cut and stained with 1% cresyl violet. Ultra-thin sections (90 nm) were cut on an ultramicrotome (Ultracut E 701704, Reichert-Jung, Buffalo, NY) using a diamond knife (Micro Star Technologies, Inc., Huntsville, TX), collected on copper grids, counterstained with 4% methanolic uranyl acetate (Electron Microscopy Sciences, Hatfield, PA), and outer retinal morphology examined using a transmission electron microscope (TEM; Model 300: Phillips, Eindhoven, The Netherlands). Photomicrographs were captured with a digital camera (15 megapixel digital camera, Scientific Instruments and Applications, Duluth, GA) and Maxim DL Version 5 software (Diffraction Limited, Ottawa, Canada).
# TSC2 = biological target: T1, TSC2 (Homo sapiens, UniProt P49815); assay: NanoSPD (nanoTRAP) interaction assay in COS-7 cells, TSC2; assay type: binding; conditions: FLAG-tagged TSC2
# T1 construct: host or cells: COS-7
# Text: (§1) FIG. 14. […] Arrowheads indicate filopodia tip accumulation of hCIB2-eGFP, * indicates no accumulation of indicted constructs in the red channel. c. Representative confocal images (top panel) showing CIB2 (green) interaction with Rheb (red) and Raptor (red) using NanoTRAP assay. […] Arrowheads indicate filopodia tip accumulation of indicated constructs, * indicates no accumulation of indicted construct in the red or far-red channel. Scale bar: 10 μm. d. Quantification for nanoTRAP assay for images shown above. *** p<0.001 by one-way ANOVA. e, Co-IP experiments show interaction between Raptor and CIB2.
# (§2) To reveal the molecular mechanism of CIB2-mediated mTORC1 modulation, we focused on the TSC-Rheb-mTORC1 axis. We performed an interaction screen of specific proteins including TSC1, TSC2, mTORC1-specific subunit Raptor, mTOR kinase, and Rheb. We used a recently-published quantitative interaction assay known as nanoscale pulldown 2.0 (NanoSPD), in which eGFP-nanobody tag fused to the myosin-HMM domain (nanoTRAP) preferentially migrates to the filopodia (Bird et al., Molecular Biology of the Cell 28, 463-475 (2017)). CIB2-eGFP (bait) migrated efficiently to filopodia in COS-7 cells only in the presence of the nanoTRAP. […] Many downstream and upstream targets of mTORC1 regulate its activity via binding to the mTORC1-specific subunit Raptor. […]
# TSC1 = biological target: T2, TSC1 (Homo sapiens, UniProt Q92574); assay: NanoSPD (nanoTRAP) interaction assay in COS-7 cells, TSC1; assay type: binding; conditions: FLAG-tagged TSC1
# T2 construct: host or cells: COS-7
# T2 sequence (Q92574 1-1164): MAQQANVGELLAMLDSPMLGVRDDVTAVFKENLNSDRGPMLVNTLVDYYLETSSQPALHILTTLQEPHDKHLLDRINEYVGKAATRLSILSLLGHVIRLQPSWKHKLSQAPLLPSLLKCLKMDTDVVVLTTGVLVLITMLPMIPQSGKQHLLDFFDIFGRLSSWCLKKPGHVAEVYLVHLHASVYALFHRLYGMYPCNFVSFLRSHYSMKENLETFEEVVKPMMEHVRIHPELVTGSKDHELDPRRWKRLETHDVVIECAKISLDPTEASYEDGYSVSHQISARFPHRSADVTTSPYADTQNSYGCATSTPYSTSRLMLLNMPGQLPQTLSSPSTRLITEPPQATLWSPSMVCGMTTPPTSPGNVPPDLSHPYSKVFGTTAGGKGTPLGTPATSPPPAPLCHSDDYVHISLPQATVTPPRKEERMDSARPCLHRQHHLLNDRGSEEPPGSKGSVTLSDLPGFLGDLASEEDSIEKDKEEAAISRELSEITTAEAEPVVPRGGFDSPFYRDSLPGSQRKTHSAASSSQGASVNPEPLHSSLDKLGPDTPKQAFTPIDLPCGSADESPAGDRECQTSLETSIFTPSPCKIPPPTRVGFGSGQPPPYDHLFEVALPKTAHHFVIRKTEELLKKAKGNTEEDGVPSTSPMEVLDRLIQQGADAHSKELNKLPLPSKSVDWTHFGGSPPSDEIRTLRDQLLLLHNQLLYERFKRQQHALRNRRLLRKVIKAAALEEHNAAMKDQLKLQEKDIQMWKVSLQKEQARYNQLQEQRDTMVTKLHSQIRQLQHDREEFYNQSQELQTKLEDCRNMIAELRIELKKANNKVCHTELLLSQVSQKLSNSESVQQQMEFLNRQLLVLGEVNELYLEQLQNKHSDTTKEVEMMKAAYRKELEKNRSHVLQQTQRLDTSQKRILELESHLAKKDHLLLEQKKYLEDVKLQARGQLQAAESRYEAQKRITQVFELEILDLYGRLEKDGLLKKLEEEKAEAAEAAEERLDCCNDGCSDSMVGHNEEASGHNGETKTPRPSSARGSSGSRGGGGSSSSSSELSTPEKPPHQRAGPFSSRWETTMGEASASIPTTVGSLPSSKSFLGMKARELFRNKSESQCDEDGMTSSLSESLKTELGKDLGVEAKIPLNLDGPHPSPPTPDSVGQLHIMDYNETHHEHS
# Text: as §1, §2
# Rheb = Rheb (Homo sapiens, UniProt Q15382); assay: Co-IP of tdTomato-CIB2 with HA-GST-Rheb and Rheb variants; assay type: binding; design: host or cells: HEK293; conditions: HEK293 lysates
# Experimental: FIG. 3. […] Note the stronger interaction between CIB2 and Rheb S20N variant as compared to Q64L variant (GDP vs GTP mimetic, respectively). c, CIB2 preferentially interacts with GDP-loaded Rheb is further confirmed by co-IP experiments of HA-GST-Rheb immobilized on […] and loaded with either GDP or GTPγS, followed by incubation with tdTomato-CIB2 lysate. d, Proposed model of CIB2 function in retinal sensory cells. […] Loss of CIB2 results in reduced autophagy and exacerbated mTORC1 signaling, thus leading to RPE pathology and secondary PR dysfunction. e, f Immunoblots from RPE/choroid lysates from dry AMD or control age-matched donors indicate reduced CIB2 expression, overactive mTORC1 and reduced autophagy, quantified in panel f. Unpaired two-tailed 1 test was used to determine statistical significance. p value of <0.05 (*), <0.01 (**), and <0.001 (***). Please note that one control sample (ψ) is outliner and is highly variant from the rest, Re-quantification, omitting the highly variant control sample, is shown in FIG. 15. g.
# We tested the essentiality of nucleotide binding state of Rheb using co-IP assays. […] Next, we used the Q64L and […] Rheb variants, which mimic the GTP- and GDP-bound state, respectively. […]
# T1 sequence (P49815 whole entry): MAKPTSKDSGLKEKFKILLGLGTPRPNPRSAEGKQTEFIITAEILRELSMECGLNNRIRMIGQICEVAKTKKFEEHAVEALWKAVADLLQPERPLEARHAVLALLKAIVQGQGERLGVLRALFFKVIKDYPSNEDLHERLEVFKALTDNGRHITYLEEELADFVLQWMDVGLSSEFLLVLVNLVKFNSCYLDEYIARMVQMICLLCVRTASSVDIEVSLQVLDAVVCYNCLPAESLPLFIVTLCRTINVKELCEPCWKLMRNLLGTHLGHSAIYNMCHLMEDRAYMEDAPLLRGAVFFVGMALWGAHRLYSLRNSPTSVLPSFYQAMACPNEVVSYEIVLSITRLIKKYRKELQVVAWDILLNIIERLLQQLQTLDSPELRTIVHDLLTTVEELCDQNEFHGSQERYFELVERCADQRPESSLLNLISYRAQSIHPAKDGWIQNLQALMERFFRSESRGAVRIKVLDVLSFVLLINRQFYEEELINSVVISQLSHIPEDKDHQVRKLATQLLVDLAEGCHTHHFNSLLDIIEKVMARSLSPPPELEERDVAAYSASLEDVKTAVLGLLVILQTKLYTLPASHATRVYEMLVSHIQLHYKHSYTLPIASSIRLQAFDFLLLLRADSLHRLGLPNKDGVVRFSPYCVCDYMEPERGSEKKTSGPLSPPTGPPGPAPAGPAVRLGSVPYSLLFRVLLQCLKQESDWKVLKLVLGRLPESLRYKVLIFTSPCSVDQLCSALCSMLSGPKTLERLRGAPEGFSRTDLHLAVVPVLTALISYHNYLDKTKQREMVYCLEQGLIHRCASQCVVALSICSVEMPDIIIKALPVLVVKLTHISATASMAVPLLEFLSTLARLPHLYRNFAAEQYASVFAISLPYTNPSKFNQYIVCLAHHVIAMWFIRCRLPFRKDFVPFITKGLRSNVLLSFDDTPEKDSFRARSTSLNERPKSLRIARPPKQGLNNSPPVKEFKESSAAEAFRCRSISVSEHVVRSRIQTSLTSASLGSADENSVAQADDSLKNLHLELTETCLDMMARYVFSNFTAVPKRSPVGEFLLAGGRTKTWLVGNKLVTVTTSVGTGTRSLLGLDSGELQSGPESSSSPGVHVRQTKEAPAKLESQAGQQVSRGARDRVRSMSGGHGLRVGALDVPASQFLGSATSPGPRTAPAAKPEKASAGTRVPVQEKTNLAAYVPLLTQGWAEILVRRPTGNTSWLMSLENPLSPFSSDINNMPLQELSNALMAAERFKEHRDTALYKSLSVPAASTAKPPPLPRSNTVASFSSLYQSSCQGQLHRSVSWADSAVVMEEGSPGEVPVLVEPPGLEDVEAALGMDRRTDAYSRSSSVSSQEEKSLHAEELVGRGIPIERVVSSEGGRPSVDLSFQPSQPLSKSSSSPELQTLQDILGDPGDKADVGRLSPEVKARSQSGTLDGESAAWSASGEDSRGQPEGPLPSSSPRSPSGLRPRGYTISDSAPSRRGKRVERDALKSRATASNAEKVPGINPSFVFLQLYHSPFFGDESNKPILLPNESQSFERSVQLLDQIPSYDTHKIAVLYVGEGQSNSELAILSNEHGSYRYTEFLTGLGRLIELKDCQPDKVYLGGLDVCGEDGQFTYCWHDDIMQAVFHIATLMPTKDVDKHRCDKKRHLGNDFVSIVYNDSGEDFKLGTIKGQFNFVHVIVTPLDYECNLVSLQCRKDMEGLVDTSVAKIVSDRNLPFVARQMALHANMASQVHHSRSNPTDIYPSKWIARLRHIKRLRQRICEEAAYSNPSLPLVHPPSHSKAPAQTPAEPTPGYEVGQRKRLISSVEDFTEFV
# Rheb, sequence (Q15382 1-181): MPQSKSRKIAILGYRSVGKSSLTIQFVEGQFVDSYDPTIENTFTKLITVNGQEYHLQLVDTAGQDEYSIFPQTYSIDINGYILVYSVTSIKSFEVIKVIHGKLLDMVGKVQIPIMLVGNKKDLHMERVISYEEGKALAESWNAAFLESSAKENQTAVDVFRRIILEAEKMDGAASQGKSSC
molecule,measurement,setting,value
CC1=C(/C=C/C(C)=C\C=C\C(C)=C\C=O)C(C)(C)CCC1 [9-cis retinal],ERG amplitude differences between groups four weeks post-injection,[1],returned to their baseline levels
same,ERG amplitudes after the treatment paradigm (overall),[1],temporarily but reproducibly improved ERG amplitudes
same,ERG amplitudes four weeks after the 2nd injection,[1],diverged significantly
same,ERG amplitudes two weeks after the 1st injection,[1],indistinguishable from those of vehicle-injected RPE-Cre+ controls
same,ERG amplitudes two weeks after the 2nd injection,[1],no discernable inter-group differences
same,Mice with vacuoles and/or sub-RPE drusen present in the RPE (TEM),[2],3 of 3
B1,Co-accumulation with TSC2 (NanoSPD),TSC2,did not show any co-accumulation
same,Co-accumulation with TSC1 (NanoSPD),TSC1,did not show any co-accumulation
B2,Co-immunoprecipitation with HA-GST-Rheb,Rheb,co-immunoprecipitated with HA-GST-Rheb
